Reference: PubChem BioAssay (NCI)
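Interpolation was linear, between the two tested concentrations surrounding the appropriate level; five concentrations were tested over 48 hours in 96-well plates. The concentration for 50% growth inhibition is given as GI50. TGI marks complete inhibition of growth.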

How the values were obtained:
Experiment in all cases: NCI tumour cell line growth inhibition, 48 h
T-47D breast = system: T-47D breast
SR leukemia = system: SR leukemia
CCRF-CEM leukemia = system: CCRF-CEM leukemia
HS 578T breast = system: HS 578T breast
MDA-N = system: MDA-N
BT-549 breast = system: BT-549 breast
PC-3 prostate = system: PC-3 prostate
DU-145 prostate = system: DU-145 prostate
MDA-MB-231 breast = system: MDA-MB-231 breast
TK-10 renal = system: TK-10 renal
RXF-631 renal = system: RXF-631 renal
SF-268 CNS = system: SF-268 CNS
MDA-MB-435 = system: MDA-MB-435
ACHN renal = system: ACHN renal
SN12K1 renal = system: SN12K1 renal
P388/ADR leukemia = system: P388/ADR leukemia
P388 leukemia = system: P388 leukemia

In the case of COC(=O)C1c2cc3c(c(O)c2C(O)CC1(C)O)C(=O)c1c(O)cc2c(c1C3=O)OC1OC2(C)C(O)C(N(C)C)C1O (stereo not drawn), the TGI (T-47D breast) is reported as 4.6 µM, the TGI (SR leukemia) is reported as over 100 µM and the TGI (CCRF-CEM leukemia) is reported as over 100 µM. It also gave a TGI (HS 578T breast) of 7.21 µM, a TGI (MDA-N) of 2.91 µM and a TGI (BT-549 breast) of 17.7 µM. It also gave a TGI (PC-3 prostate) of 2.43 µM, a TGI (DU-145 prostate) of 3.44 µM and a TGI (MDA-MB-231 breast) of 2.64 µM.
In the case of CCN(CC)CCO[Si](OCCN(CC)CC)(OCCN(CC)CC)OCCN(CC)CC, the TGI (TK-10 renal) is reported as over 100 µM, the TGI (SR leukemia) is reported as over 100 µM and the TGI (RXF-631 renal) is reported as over 100 µM.
CCOC(=O)Cn1c(=O)c(C)cn(COCCO)c1=O was tested, and the TGI (SF-268 CNS) was over 100 µM, the TGI (MDA-MB-435) was over 100 µM and the TGI (TK-10 renal) was over 100 µM. The TGI (T-47D breast) was over 100 µM, the TGI (HS 578T breast) was over 100 µM and the TGI (MDA-N) was over 100 µM. For the same compound, the TGI (BT-549 breast) was over 100 µM, the TGI (PC-3 prostate) was over 100 µM and the TGI (ACHN renal) was over 100 µM. It also gave a TGI (DU-145 prostate) of over 100 µM and a TGI (MDA-MB-231 breast) of over 100 µM.
CCOC(C)OC1CC(n2cc(C)c(=O)[nH]c2=O)OC1CO (stereo not drawn) gave a TGI (SF-268 CNS) of over 100 µM, a TGI (TK-10 renal) of over 100 µM and a TGI (SR leukemia) of over 100 µM. The TGI (CCRF-CEM leukemia) was over 100 µM and the TGI (ACHN renal) was over 100 µM.
Work on O=C(CCC1CCCCN1)Nc1ccc2c(c1)C(=O)c1ccc(NC(=O)CCN3CCCCC3)cc1C2=O (stereo not drawn) yielded a TGI (SF-268 CNS) of 25.4 µM, a TGI (TK-10 renal) of 9.42 µM and a TGI (SR leukemia) of over 100 µM. It also gave a GI50 (CCRF-CEM leukemia) of 1.12 µM and a TGI (CCRF-CEM leukemia) of 4.86 µM.
CC1OC(=O)C(C(C)C)NC(=O)C(C(C)C)OC(=O)C(C(C)C)NC(=O)C(C)OC(=O)C(C(C)C)NC(=O)C(C(C)C)OC(=O)C(C(C)C)NC(=O)C(C)OC(=O)C(C(C)C)NC(=O)C(C(C)C)OC(=O)C(C(C)C)NC1=O (stereo not drawn) was tested, and the TGI (SN12K1 renal) was 0.816 µM, the TGI (SF-268 CNS) was 5.09 µM and the TGI (P388/ADR leukemia) was 0.0325 µM. The TGI (T-47D breast) was 0.0138 µM, the TGI (CCRF-CEM leukemia) was 4.2 µM and the TGI (P388 leukemia) was 0.25 µM. The TGI (ACHN renal) was under 0.0001 µM.
In the case of CN1CN(C(=O)N2CN(C)C(=O)N(C)C2)CN(C)C1=O, the TGI (SF-268 CNS) is reported as over 100 µM, the TGI (CCRF-CEM leukemia) is reported as over 100 µM and the TGI (ACHN renal) is reported as over 100 µM.
